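How tested: cells in 96-well plates exposed to compound for 48 hours at five concentrations. TGI marks complete inhibition of growth.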
Assays:
Assay in all cases: DTP human tumour cell line panel, 48 h
UO-31 renal = tested on: UO-31 renal
SK-OV-3 ovarian = tested on: SK-OV-3 ovarian
HOP-62 NSCLC = tested on: HOP-62 NSCLC
MOLT-4 leukemia = tested on: MOLT-4 leukemia
KM12 colon = tested on: KM12 colon
SF-539 CNS = tested on: SF-539 CNS
HT29 colon = tested on: HT29 colon
MCF7 breast = tested on: MCF7 breast
786-0 renal = tested on: 786-0 renal
MDA-N = tested on: MDA-N

Structure (SMILES) | TGI (UO-31 renal) [µM] | TGI (SK-OV-3 ovarian) [µM] | TGI (HOP-62 NSCLC) [µM] | TGI (MOLT-4 leukemia) [µM] | TGI (KM12 colon) [µM] | TGI (SF-539 CNS) [µM] | TGI (HT29 colon) [µM] | TGI (MCF7 breast) [µM] | TGI (786-0 renal) [µM] | TGI (MDA-N) [µM]
O=C(NC(Cc1ccc(I)cc1)C(=O)O)c1ccc(Br)cc1 (centres undefined) | > 100 | > 100 | > 100 | > 100 | > 100 | > 100 | > 100 | > 100 |  | 
Cc1ccc(S(=O)(=O)OCC(=O)O)cc1 | > 100 |  | > 100 | > 100 |  |  | > 100 |  | > 100 | > 100
C[C@H](N)C(=O)Nc1ccc(-c2nc3ccccc3s2)cc1 | 28.4 | 57.2 | 72.9 | 31.4 | 31.1 | 52.3 | 38.2 |  | 29.1 | 38.4
Cc1cn(C2CC(n3cc(Cn4cc(Br)c(=O)[nH]c4=O)nn3)C(CO)O2)c(=O)[nH]c1=O (centres undefined) | > 100 | > 100 | > 100 | > 100 | > 100 | > 100 |  | > 100 | > 100 | > 100
O=C1Nc2c(ccc(Cl)c2I)C1=O | 32.1 | 48.3 | 48.3 | 40.1 | 65.6 |  | > 100 |  | 28.2 | 
Cc1ccn2c(=O)cc(-c3ccccc3)nc2c1 |  | > 100 | > 100 | > 100 | > 100 | > 100 | > 100 | > 100 | > 100 | > 100
CCOC(=O)c1ccc(N2C(=S)N(C(=O)c3ccccc3)C(=Nc3ccccc3)C2=Nc2ccccc2)cc1 | > 100 | > 100 | > 100 |  | > 100 | > 100 | > 100 | > 100 | > 100 | > 100
COc1cc(C2SCC(=O)N2c2ccc(-c3ccc(-n4c(-c5ccccc5)nc5ccccc5c4=O)cc3)cc2)cc(OC)c1OC (centres undefined) | > 100 | > 100 | 85.5 | > 100 | 62.9 | > 100 | > 100 | > 100 | 47.6 | 
NC(=O)NNC(=O)c1nc[nH]c1[N+](=O)[O-] | > 100 | > 100 | > 100 | > 100 |  | > 100 | > 100 | > 100 | > 100 | > 100
NC1=NS(=O)(=O)Nc2nc(-c3ccc([N+](=O)[O-])cc3)[nH]c21 | > 100 | > 100 | > 100 | > 100 | > 100 | > 100 | > 100 |  | > 100 | 
CC(=O)Nc1cc2c(s1)CCC1CC(=O)NN=C21 (centres undefined) | > 100 |  | > 100 | > 100 | > 100 | > 100 | > 100 |  | > 100 | 
O=C(OCC1OC2OC(c3ccccc3)(n3ccc4c([N+](=O)[O-])ccnc43)OC2C1OC(=O)c1ccccc1)c1ccccc1 (centres undefined) | > 100 | > 100 | > 100 | > 100 | > 100 |  | > 100 | > 100 | > 100 | > 100

Reference: PubChem BioAssay (NCI)
